Results published in patent publication US7192924B2, “Corticotropin releasing factor 2 receptor agonists” (priority 2002, dated 2007).
Peptide text beside a SMILES is read from it.

Columns and labels:
CRF1R = molecular target: T1, CRF1R (Homo sapiens, UniProt P34998); assay: CRF1R agonist activity (EC50, Emax), called comparative CRF binding; assay type: cell-based; conditions: read-out: CRF1R EC50
T1 sequence (P34998 24-415): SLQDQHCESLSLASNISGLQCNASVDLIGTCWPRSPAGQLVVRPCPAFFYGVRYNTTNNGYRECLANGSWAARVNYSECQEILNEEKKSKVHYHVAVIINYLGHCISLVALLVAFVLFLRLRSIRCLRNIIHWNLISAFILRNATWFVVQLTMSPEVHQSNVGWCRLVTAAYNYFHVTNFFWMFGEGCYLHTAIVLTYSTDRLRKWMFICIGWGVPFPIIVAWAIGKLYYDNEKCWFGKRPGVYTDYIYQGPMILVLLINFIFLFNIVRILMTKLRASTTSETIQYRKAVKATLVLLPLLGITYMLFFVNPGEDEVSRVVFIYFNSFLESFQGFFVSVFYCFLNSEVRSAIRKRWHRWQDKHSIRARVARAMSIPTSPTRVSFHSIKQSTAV
Method in brief: (§1)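 cAMP read-out: CRE-linked reporter (e.g. luciferase, CAT, GFP) or lysate cAMP in CRF1R- or CRF2R-expressing cells after peptide exposure; vehicle control comparison. Signal from any non-target CRFR subtracted.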

CRF2R = molecular target: T2, CRF2R (Homo sapiens, UniProt Q13324); assay: CRF2R agonist activity (EC50, Emax), called comparative CRF binding; assay type: cell-based; conditions: read-out: CRF2R EC50
T2 sequence (Q13324 1-411): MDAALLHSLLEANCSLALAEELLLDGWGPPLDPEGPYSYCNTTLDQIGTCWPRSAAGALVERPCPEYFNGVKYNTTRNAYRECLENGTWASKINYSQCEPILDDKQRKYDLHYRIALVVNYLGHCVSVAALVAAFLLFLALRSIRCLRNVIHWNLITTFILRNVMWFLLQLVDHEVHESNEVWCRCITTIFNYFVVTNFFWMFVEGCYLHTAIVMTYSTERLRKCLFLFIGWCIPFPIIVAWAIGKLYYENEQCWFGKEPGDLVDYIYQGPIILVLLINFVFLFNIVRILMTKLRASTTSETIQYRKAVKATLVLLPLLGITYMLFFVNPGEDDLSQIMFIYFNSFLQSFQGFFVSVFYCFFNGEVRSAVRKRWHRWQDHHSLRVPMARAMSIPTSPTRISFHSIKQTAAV
Method in brief: as §1

| SMILES | EC50 (CRF1R) | EC50 (CRF2R) |
| --- | --- | --- |
| CC[C@H](C)[C@H](NC(=O)[C@H](C)NC(=O)[C@H](CC(N)=O)NC(=O)[C@H](CCC(N)=O)NC(=O)[C@H](CCC(=O)O)NC(=O)[C@H](C)NC(=O)[C@H](CCCNC(=N)N)NC(=O)[C@H](CCC(=O)O)NC(=O)[C@H](CCCNC(=N)N)NC(=O)[C@H](CCC(N)=O)NC(=O)[C@H](CO)NC(=O)[C@H](CCC(N)=O)NC(=O)[C@@H](NC(=O)[C@H](CCCCN)NC(=O)[C@H](CCC(=O)O)NC(=O)[C@H](CC(C)C)NC(=O)[C@H](CCC(=O)O)NC(=O)[C@H](CC(C)C)NC(=O)[C@H](CC(C)C)NC(=O)[C@@H](NC(=O)[C@H](CCCNC(=N)N)NC(=O)[C@H](CC(C)C)NC(=O)[C@H](CC(C)C)NC(=O)[C@H](Cc1ccccc1)NC(=O)[C@H](CC(C)C)NC(=O)[C@@H]1CCCN1C(=O)[C@H](CC(C)C)NC(=O)[C@H](CC(=O)O)NC(=O)[C@@H](NC(=O)[C@H](CO)NC(=O)[C@H](CC(C)C)NC(=O)[C@H](CO)NC(=O)[C@@H]1CCCN1C(=O)[C@H](CC(N)=O)NC(=O)[C@@H](N)CC(=O)O)[C@@H](C)CC)[C@@H](C)O)[C@@H](C)O)C(=O)N[C@H](C(=O)N[C@@H](Cc1ccccc1)C(=O)N[C@@H](C)C(=O)N[C@@H](CO)C(=O)N[C@H](C(N)=O)C(C)C)[C@@H](C)CC [compound 343] (H-DNPSLSIDLPLFLLRTLLELEKTQSQRERAEQNAIIFASV-NH2; N-terminus assumed) | 783 nM | 13.6 nM |
| CC[C@H](C)[C@H](NC(=O)[C@H](C)NC(=O)[C@H](CC(N)=O)NC(=O)[C@H](CCC(N)=O)NC(=O)[C@H](CCC(=O)O)NC(=O)[C@H](C)NC(=O)[C@H](CCCNC(=N)N)NC(=O)[C@H](CCC(=O)O)NC(=O)[C@H](CCCNC(=N)N)NC(=O)[C@H](CCC(N)=O)NC(=O)[C@H](CO)NC(=O)[C@H](CCC(N)=O)NC(=O)[C@@H](NC(=O)[C@H](CCCCN)NC(=O)[C@H](CCC(=O)O)NC(=O)[C@H](CC(C)C)NC(=O)[C@H](CCC(=O)O)NC(=O)[C@H](CC(C)C)NC(=O)[C@H](CC(C)C)NC(=O)[C@@H](NC(=O)[C@H](CCCNC(=N)N)NC(=O)[C@H](CC(C)C)NC(=O)[C@H](CC(C)C)NC(=O)[C@H](CC(C)C)NC(=O)[C@H](CC(C)C)NC(=O)[C@@H]1CCCN1C(=O)[C@H](CC(C)C)NC(=O)[C@H](CC(=O)O)NC(=O)[C@@H](NC(=O)[C@H](CO)NC(=O)[C@H](CC(C)C)NC(=O)[C@H](CO)NC(=O)[C@@H]1CCCN1)[C@@H](C)CC)[C@@H](C)O)[C@@H](C)O)C(=O)N[C@H](C(=O)N[C@@H](Cc1ccccc1)C(=O)N[C@@H](C)C(=O)N[C@@H](CO)C(=O)N[C@H](C(N)=O)C(C)C)[C@@H](C)CC [compound 344] (H-PSLSIDLPLLLLRTLLELEKTQSQRERAEQNAIIFASV-NH2) | 650 nM | 4.3 nM |
| CC[C@H](C)[C@H](NC(=O)[C@H](C)NC(=O)[C@H](CC(N)=O)NC(=O)[C@H](CCC(N)=O)NC(=O)[C@H](CCC(=O)O)NC(=O)[C@H](C)NC(=O)[C@H](CCCNC(=N)N)NC(=O)[C@H](CCC(=O)O)NC(=O)[C@H](CCCNC(=N)N)NC(=O)[C@H](CCC(N)=O)NC(=O)[C@H](CO)NC(=O)[C@H](CCC(N)=O)NC(=O)[C@@H](NC(=O)[C@H](CCCCN)NC(=O)[C@H](CCC(=O)O)NC(=O)[C@H](CC(C)C)NC(=O)[C@H](CCC(=O)O)NC(=O)[C@H](CC(C)C)NC(=O)[C@H](CC(C)C)NC(=O)[C@@H](NC(=O)[C@H](CCCNC(=N)N)NC(=O)[C@H](CC(C)C)NC(=O)[C@H](CC(C)C)NC(=O)[C@H](CC(C)C)NC(=O)[C@H](CC(C)C)NC(=O)[C@@H]1CCCN1C(=O)[C@H](CC(C)C)NC(=O)[C@H](CC(=O)O)NC(=O)[C@@H](NC(=O)[C@H](CO)NC(=O)[C@H](CC(C)C)NC(=O)[C@H](CO)NC(=O)[C@@H]1CCCN1C(=O)[C@H](CC(N)=O)NC(=O)[C@@H](N)CC(=O)O)[C@@H](C)CC)[C@@H](C)O)[C@@H](C)O)C(=O)N[C@H](C(=O)N[C@@H](Cc1ccccc1)C(=O)N[C@@H](C)C(=O)N[C@@H](CO)C(=O)N[C@H](C(N)=O)C(C)C)[C@@H](C)CC [compound 347] (H-DNPSLSIDLPLLLLRTLLELEKTQSQRERAEQNAIIFASV-NH2) | ≥ 1000 nM | 22.4 nM |
